The values that follow come from US4526989A, “1,4-Bis (substituted-amino)-5,8-dihydroxy-anthraquinones and leuco bases thereof” (priority 1979, dated 1985).

The assay concerns lymphocytic leukemia P388. Nature of the assay: Lymphocytic leukemia P388 test (intraperitoneal administration). Format: in vivo, DBA/2 mice. On the procedure:
The animals used are DBA/2 mice all of one sex, weighing a minimum of 17 g. and all within a 3 gram weight range. There are 5 or 6 animals per test group. The tumor transplant is by intraperitoneal injection of 0.1 ml. of dilute ascitic fluid containing 10^6 cells of lymphocytic leukemia P388. The test compounds are administered intraperitoneally on days one, 5 and 9 (relative to tumor inoculation) at various doses. The animals are weighed and survivors are recorded on a regular basis for 30 days. The median survival time and the ratio of survival time for treated (T)/control (C) animals are calculated.

Setting [1] is: 0.78 mg./kg. i.p., days 1, 5 and 9.
[2] abbreviates: 1.56 mg./kg. i.p., days 1, 5 and 9.
The mark [3] stands for this setting: 3.12 mg./kg. i.p., days 1, 5 and 9.
The mark [4] stands for this setting: 6.25 mg./kg. i.p., days 1, 5 and 9.
Where [5] appears, read: 12.5 mg./kg. i.p., days 1, 5 and 9.
The mark [6] stands for this setting: 25 mg./kg. i.p., days 1, 5 and 9.
Setting [7] is: 50 mg./kg. i.p., days 1, 5 and 9.
Setting [8] is: 100 mg./kg. i.p., days 1, 5 and 9.
[9] abbreviates: Mus musculus, P388, ip, 0.78 mg./kg. i.p., days 1, 5 and 9, efficacy ≥125%, read-out: T/C × 100.
[10] abbreviates: Mus musculus, P388, ip, 1.56 mg./kg. i.p., days 1, 5 and 9, efficacy ≥125%, read-out: T/C × 100.
[11] abbreviates: Mus musculus, P388, ip, 3.12 mg./kg. i.p., days 1, 5 and 9, efficacy ≥125%, read-out: T/C × 100.
Setting [12] is: Mus musculus, P388, ip, 6.25 mg./kg. i.p., days 1, 5 and 9, efficacy ≥125%, read-out: T/C × 100.
[13] abbreviates: Mus musculus, P388, ip, 12.5 mg./kg. i.p., days 1, 5 and 9, efficacy ≥125%, read-out: T/C × 100.
Where [14] appears, read: Mus musculus, P388, ip, 50 mg./kg. i.p., days 1, 5 and 9, efficacy ≥125%, read-out: T/C × 100.
The mark [15] stands for this setting: Mus musculus, P388, ip, 100 mg./kg. i.p., days 1, 5 and 9, efficacy ≥125%, read-out: T/C × 100.
[16] abbreviates: Mus musculus, P388, ip, read-out: T/C × 100.
Where [17] appears, read: 3.1 mg./kg. i.p., days 1, 5 and 9.
The mark [18] stands for this setting: Mus musculus, P388, ip, 3.1 mg./kg. i.p., days 1, 5 and 9, efficacy ≥125%, read-out: T/C × 100.
Setting [19] is: Mus musculus, P388, ip, 25 mg./kg. i.p., days 1, 5 and 9, efficacy ≥125%, read-out: T/C × 100.
[20] abbreviates: 6.2 mg./kg. i.p., days 1, 5 and 9.
The mark [21] stands for this setting: 200 mg./kg. i.p., days 1, 5 and 9.
Setting [22] is: Mus musculus, P388, ip, 6.2 mg./kg. i.p., days 1, 5 and 9, efficacy ≥125%, read-out: T/C × 100.
[23] abbreviates: Mus musculus, P388, ip, 200 mg./kg. i.p., days 1, 5 and 9, efficacy ≥125%, read-out: T/C × 100.

Where a name gives a salt, the structure may show the parent alone. Read-outs that look alike come from different tables or passages of the source. Bounds are passed on as bounds.

Consider `O=C1c2c(O)ccc(O)c2C(=O)c2c(NCCN3CC3)ccc(NCCN3CC3)c21` [1,4-Bis[2-(1-aziridino)ethylamino]-5,8-dihydroxyanthraquinone], for which the “Median Survival Time” value reads like this: under setting [1], 14.0 days; under setting [2], 17.0 days; under setting [3], 19.5 days; under setting [4], 18.5 days; under setting [5], 20.5 days; under setting [6], 20.0 days. The “Median Survival Time” value was 21.5 days under setting [7] and 28.5 days under setting [8]. Further, the response vs control in vivo at 0.78 mg/kg under setting [9] is 140%. Further, the response vs control in vivo at 1.56 mg/kg under setting [10] stood at 170%. Under setting [11], the response vs control in vivo at 3.12 mg/kg was 195%. For the same compound, under setting [12], the response vs control in vivo at 6.25 mg/kg stood at 185%. Besides, under setting [13], the response vs control in vivo at 12.5 mg/kg worked out at 205%. Under setting [14], the response vs control in vivo at 50 mg/kg amounted to 215%. Further, under setting [15], the response vs control in vivo at 100 mg/kg is 285%. Besides, under setting [16], the response vs control in vivo at 25 mg/kg stood at 200%.

Consider `Cl.Cl.O=C1c2c(O)ccc(O)c2C(=O)c2c(NCCNCCCO)ccc(NCCNCCCO)c21` [1,4-Bis[2-(3-hydroxy-1-propylamino)ethylamino]-5,8-dihydroxyanthraquinone dihydrochloride], for which the “Median Survival Time” value is 21.5 days under setting [1]; 22.0 days under setting [2]; 25.0 days under setting [17]; 26.0 days under setting [4]; more than 30.0 days under setting [5]; 8.5 days under setting [6]. Besides, under setting [16], the response vs control in vivo at 1.56 mg/kg is 200%. Moreover, under setting [9], the response vs control in vivo at 0.78 mg/kg amounted to 195%. In addition, the response vs control in vivo at 3.1 mg/kg under setting [18] came out at 227%. In addition, under setting [12], the response vs control in vivo at 6.25 mg/kg was 236%. Moreover, under setting [13], the response vs control in vivo at 12.5 mg/kg is more than 273%. The response vs control in vivo at 25 mg/kg under setting [19] was determined as 77%.

`O=C1c2c(O)ccc(O)c2C(=O)c2c(NCCNCCN3CCOCC3)ccc(NCCNCCN3CCOCC3)c21` [1,4-Bis[2-[2-(1-morpholino)ethylamino]ethylamino]-5,8-dihydroxyanthraquinone tetrahydrochloride]: the “Median Survival Time” value turned out to be 13.0 days under setting [17]; 14.0 days under setting [20]; 15.0 days under setting [5]; 19.5 days under setting [6]; 18.5 days under setting [7]; 20.0 days under setting [8]. For the same compound, under setting [21], the “Median Survival Time” value was found to be 9.5 days. The response vs control in vivo at 100 mg/kg under setting [16] is 200%. Also, the response vs control in vivo at 3.1 mg/kg under setting [18] turned out to be 130%. Under setting [22], the response vs control in vivo at 6.2 mg/kg is 140%. Moreover, the response vs control in vivo at 12.5 mg/kg under setting [13] amounted to 150%. For the same compound, under setting [19], the response vs control in vivo at 25 mg/kg is 195%. Further, under setting [14], the response vs control in vivo at 50 mg/kg amounted to 185%. Under setting [23], the response vs control in vivo at 200 mg/kg is 95%.

In the case of `Cl.Cl.O=C1c2c(O)ccc(O)c2C(=O)c2c(NCCCNCCO)ccc(NCCCNCCO)c21` [1,4-Bis[3-(2-hydroxyethylamino)-1-propylamino]-5,8-dihydroxyanthraquinone dihydrochloride], the “Median Survival Time” value was 15.0 days under setting [1]; 16.0 days under setting [2]; 19.0 days under setting [3]; 19.0 days under setting [4]; 22.5 days under setting [5]; 26.5 days under setting [6]. Also, the “Median Survival Time” value under setting [7] came out at 32.0 days and the “Median Survival Time” value under setting [8] was 12.5 days. For the same compound, under setting [9], the response vs control in vivo at 0.78 mg/kg stood at 136%. The response vs control in vivo at 1.56 mg/kg under setting [10] was 145%. Further, under setting [11], the response vs control in vivo at 3.12 mg/kg was 173%. Besides, the response vs control in vivo at 6.25 mg/kg under setting [12] came to 173%. Also, the response vs control in vivo at 12.5 mg/kg under setting [13] came out at 205%. Besides, the response vs control in vivo at 25 mg/kg under setting [19] was determined as 241%. Moreover, the response vs control in vivo at 50 mg/kg under setting [14] was 291%. Moreover, the response vs control in vivo at 100 mg/kg under setting [15] turned out to be 114%.

As for `Cl.Cl.NCCNc1ccc(NCCN)c2c1C(=O)c1c(O)ccc(O)c1C2=O` [1,4-Bis(2-aminoethylamino)-5,8-dihydroxyanthraquinone dihydrochloride], the “Median Survival Time” value runs as follows: (0.19 mg./kg. i.p., days 1, 5 and 9) 23.0 days; (0.39 mg./kg. i.p., days 1, 5 and 9) 25.5 days; under setting [1], 24.5 days; under setting [2], 20.0 days; under setting [17], 30.0 days; under setting [20], 15.5 days. For the same compound, under setting [5], the “Median Survival Time” value turned out to be 8.0 days. The response vs control in vivo at 0.19 mg/kg (Mus musculus, P388, ip, 0.19 mg./kg. i.p., days 1, 5 and 9, efficacy ≥125%, read-out: T/C × 100) is 209%. Besides, the response vs control in vivo at 0.39 mg/kg (Mus musculus, P388, ip, 0.39 mg./kg. i.p., days 1, 5 and 9, efficacy ≥125%, read-out: T/C × 100) was determined as 232%. Further, the response vs control in vivo at 0.78 mg/kg under setting [9] is 223%. Moreover, under setting [10], the response vs control in vivo at 1.56 mg/kg came to 182%. The response vs control in vivo at 3.1 mg/kg under setting [18] stood at 273%. Also, the response vs control in vivo at 6.2 mg/kg under setting [22] was found to be 141%. Besides, the response vs control in vivo at 12.5 mg/kg under setting [13] worked out at 73%.

In the case of `O=C1C2=C(NCCN(CCO)CCO)CCC(NCCN(CCO)CCO)=C2C(=O)c2c(O)ccc(O)c21` [Leuco-1,4-bis[2-[di(β-hydroxyethyl)amino]ethylamino]-5,8-dihydroxyanthraquinone], the “Median Survival Time” value runs as follows: under setting [20], 12.0 days; under setting [5], 13.5 days; under setting [6], 15.0 days; under setting [7], 16.0 days; under setting [8], 17.0 days; under setting [21], 19.0 days. Further, under setting [22], the response vs control in vivo at 6.2 mg/kg was 120%. Also, under setting [13], the response vs control in vivo at 12.5 mg/kg is 135%. Also, under setting [19], the response vs control in vivo at 25 mg/kg amounted to 150%. For the same compound, the response vs control in vivo at 50 mg/kg under setting [14] was determined as 160%. Besides, under setting [15], the response vs control in vivo at 100 mg/kg turned out to be 170%. Besides, the response vs control in vivo at 200 mg/kg under setting [23] worked out at 190%.
